“Also recorded” adds a separate entry of the source.
Assays:
Format in all cases: in vivo, mouse
[1] = 19F NMR of fluorinated gemcitabine metabolites in tissue; conditions: KPC tumors; 10 days of treatment; vs untreated tumors
Method: Mice were treated with indicated regiments for 12 days. […] Tissues were rapidly dissected and snap frozen in liquid nitrogen. Tissue specimens were maintained at −80° C. until subjected to nucleotide extraction. Samples were homogenized in a Qiagen TissueLyser with a 5 mm ball bearing for 2×6 minutes at 25 KHz, in the presence of 4 volumes of ice-cold acetonitrile (μL acetonitrile=4×[…] of tissue). An equal volume of water was added and then the sample was spun at 14,000 rpm for 10 minutes at 4° C. Supernatant was freeze dried, resuspended in 600 μL of D2O and transferred to a 5 mm standard NMR tube (Wilmad) for ^19F NMR analysis on a Bruker 600 MHZ (14.1T) Avance NMR spectrometer using a QNP probe. Acquisition parameters included a 1D pulse sequence of ^19F observation and inverse-gated ^1H decoupling, spectral sweep width of 177 ppm (100000 Hz), 4096 scans and 1.65 sec of repetition time. Total acquisition time for each sample was about 1 hr 55 min. Trichloro-fluoro-methane was used for ^19F NMR chemical shift calibrations. A broad hump observed in the baseline of ^19F NMR spectra was removed by application of Linear-prediction (LP) back projection to the time domain data by using 2000 (number of LP) coefficients and 128 back-prediction points prior to Fourier transformation and phase correction. […]

[2] = system: KPC tumor blood vessels; experiment: Vessel patency: lectin perfusion with CD31 staining in KPC tumors; conditions: KPC mice treated 10 days; vs untreated or gemcitabine tumors
Method: To assess the functional vasculature, biotin-conjugated Lycopersicon esculentum lectin (B1175-1 mg, Vector Laboratories) was resuspended in 425 μL PBS and mixed with 75 μL of 1 mg/mL Streptavidin-AlexaFluor 633 (S21375, Molecular Probes) (in sterile PBS). Prior to use, the lectin-avidin mixture was centrifuged 14,000 k on a microfuge for 10 minutes to remove any particulate. Fifteen minutes prior to euthanasia, 100 μl (0.4 mg total) of the conjugated lectin was administered as a slow intravenous infusion over 5 minutes, and the hemodynamics monitored closely to ensure that it was tolerated. For doxorubicin experiments, five minutes prior to euthanasia mice were also infused with a 20 mg/kg doxorubicin solution (D-1515.10 mg, in sterile saline, Sigma) over one minute.
While under terminal anesthesia, mice were perfused with 4% paraformaldehyde in PBS, pH 7.4. Perfused tissues were harvested, fixed overnight in 4% paraformaldehyde in PBS, pH 7.4 and transferred to 70% ethanol. Tissues were embedded in paraffin, sectioned, rehydrated, and counterstained with DAPI. The lectin labeling experiments were reproduced independently in a second laboratory (SRH, KI).
Mice were infused with 30 ml of 4% PFA pH 7.4 using a Harvard Apparatus PhD 2000 syringe pump at a rate of […]. […] Doxorubicin fluorescence was excited with a 488 nm laser, and emission was detected in a range from 520-620 nm. […]

[3] = system: KPC tumor vasculature; experiment: Mean vascular density and vascular-tumor distance (CD31 immunohistochemistry) in KPC tumors
Method: Tissues were fixed in 10% formalin solution for 24 hours and transferred to 70% ethanol. Tissues were paraffin embedded, sectioned and rehydrated. For CD31 IHC, sections were unmasked in 10 mM EDTA, pH 8.0 in a pressure cooker. For all other antibodies, sections were unmasked in 10 mM citric acid in a pressure cooker. Endogenous peroxidases were quenched in 3% H2O2/PBS for 20 minutes. Remaining steps were carried out with Vectastain ABC kits appropriate to the species of primary antibody (Vector Labs, Burlingame, Calif.) with the following modification: blocking serum was supplemented with Protein Blocking Agent (Immunotech/BeckmanCoulter, Fullerton, Calif.) diluted 1:50. Antigens were developed with DAB Peroxidase Substrate (Vector Labs). […]
Tissue sections were probed with anti-CD31 antibodies and counterstained with hematoxylin. Mean vascular density (MVD) was determined as the number of CD31 positive blood vessels per 40× field, over three random fields per tumor. The distance separating intratumoral blood vessels and neoplastic cells was determined for twenty randomly chosen blood vessels per tumor. Each intratumoral blood vessels was photographed at 1000× magnification, and the distance to the four nearest tumor cells was measured and the results averaged.

[4] = system: KPC tumors; experiment: Proliferation of KPC tumors (phospho-histone H3 immunohistochemistry); conditions: 4 days or 8-12 days of treatment
Method: Tissues were fixed in 10% formalin solution for 24 hours and transferred to 70% ethanol. Tissues were paraffin embedded, sectioned and rehydrated. For CD31 IHC, sections were unmasked in 10 mM EDTA, pH 8.0 in a pressure cooker. For all other antibodies, sections were unmasked in 10 mM citric acid in a pressure cooker. Endogenous peroxidases were quenched in 3% H2O2/PBS for 20 minutes. Remaining steps were carried out with Vectastain ABC kits appropriate to the species of primary antibody (Vector Labs, Burlingame, Calif.) with the following modification: blocking serum was supplemented with Protein Blocking Agent (Immunotech/BeckmanCoulter, Fullerton, Calif.) diluted 1:50. Antigens were developed with DAB Peroxidase Substrate (Vector Labs). The following antibody dilutions were used: Phospho-Histone H3, 1:100 (#9701, Cell Signaling Technology); Cleaved Caspase 3, 1:100 (#9661, Cell Signaling Technology); CD31, 1:75 (SC-1506). Slides were counterstained with hematoxylin.

## CC1=C2C[C@H]3[C@@H](CC[C@@H]4C[C@H](NS(C)(=O)=O)CC[C@@]43C)[C@@H]2CC[C@@]2(C1)O[C@@H]1C[C@H](C)CN[C@H]1[C@H]2C.Cl [Compound A]
[1]
  concentration of gemcitabine metabolites in KPC tumor tissue: No difference
[2]
  vessel patency (percent of CD31 positive vessels perfused with lectin): increased vessel patency
[3]; KPC tumors after 8-12 days of treatment
  mean vascular density (MVD): higher MVD; also recorded: significantly elevated; also recorded: increased MVD
[3]; KPC tumors, vs control and gemcitabine-treated specimens
  position of intratumoral blood vessels relative to tumor cells: positioned in close proximity to tumor cells
[4]
  proliferation of KPC tumors: little appreciable effect; also recorded: unchanged

— patent publication US20120020876A1, “HEDGEHOG PATHWAY INHIBITORS” (priority 2009, published 2012)
